This is an account of results in patent US20230142338A1, “THIOPHENYL DERIVATIVES USEFUL FOR MODULATING NUCLEIC ACID SPLICING” (REMIX THERAPEUTICS INC., priority 2020, published 2023).

Bounds are passed on as bounds.

What all share (assay type): cell-based
For one assay, the system named is HTT AJ mRNA. Nature of the assay: Splicing assay (RT-qPCR): increase in HTT alternative junction (AJ) mRNA. The conditions noted are these: A673 or K562 cells, 24 hours treatment; concentration having 50% response in AJ mRNA increase. On the procedure:
(§1) Compounds described herein were used to modulate RNA transcript abundance in cells. The expression of a target mRNA was measured by detecting the formation of an exon-exon junction in the canonical transcript (CJ). A compound mediated exon-inclusion event was detected by observing an increase in formation of a new junction with an alternative exon (AJ). Real-time qPCR assays were used to detect these splicing switches and interrogate the potency of various compounds towards different target genes. A high-throughput real time quantitative PCR (RT-qPCR) assay was developed to measure these two isoforms of the mRNA (CJ and AJ) for an exemplary gene, HTT, together with a control housekeeping gene, GAPDH or GUSB or PPIA, used for normalization. Briefly, the A673 or K562 cell line was treated with various compounds described herein (e.g., compounds of Formula (I)). After treatment, the levels of the HTT mRNA targets were determined from each sample of cell lysate by cDNA synthesis followed by qPCR.
(§2) The A673 cell line was cultured in DMEM with 10% FBS. Cells were diluted with full growth media and plated in a 96-well plate (15,000 cells in 100 ul media per well). The plate was incubated at 37° C. with 5% CO2 for 24 hours to allow cells to adhere. An 11-point 3-fold serial dilution of the compounds was made in DMSO then diluted in media in an intermediate plate. Compounds were transferred from the intermediate plate to the cell plate with the top dose at a final concentration of 10 uM in the well. Final DMSO concentration was kept at or below 0.25%. The cell plate was returned to the incubator at 37° C. with 5% CO2 for an additional 24 hours.
(§3) The K562 cell line was cultured in IMDM with 10% FBS. For K562, cells were diluted with full growth media and plated in either a 96-well plate (50,000 cells in 50 uL media per well) or a 384-well plate (8,000-40,000 cells in 45 uL media per well). An 11-point 3-fold serial dilution of the compounds were made in DMSO then diluted in media in an intermediate plate. Compound was transferred from the intermediate plate to the cell plate with the top dose at a final concentration of 10 uM in the well. Final DMSO concentration was kept at or below 0.25%. Final volume was 100 uL for 96-well plate and 50 uL for 384-well plate. The cell plate was then placed in an incubator at 37° C. with 5% CO2 for 24 hours.
(§4) The cells were then gently washed with 50 uL-100 uL cold PBS before proceeding to addition of lysis buffer. 30 uL-50 uL of room temperature lysis buffer with DNAse I (and optionally RNAsin) was added to each well. Cells were shaken/mixed thoroughly at room temperature for 5-10 minutes for lysis to take place and then 3 uL-5 uL of room temperature stop solution was added and wells were shaken/mixed again. After 2-5 minutes, the cell lysate plate was transferred to ice for RT-qPCR reaction setup. The lysates could also be frozen at −80° C. for later use.
(§5) In some cases, a direct lysis buffer was used. An appropriate volume of 3× lysis buffer (10 mM Tris, 150 mM NaCl, 1.5%-2.5% Igepal and 0.1-1 U/uL RNAsin, pH 7.4) was directly added to either K562 or A673 cells in media and mixed by pipetting 3 times. The plates were then incubated at room temperature with shaking/rocking for 20-50 minutes to allow for lysis to take place. After this time, the cell lysate plate was transferred to ice to set up for the RT-qPCR reactions. The lysates could also be frozen at −80° C. for later use.
(§6) To set up 10 uL RT-qPCR reactions, cell lysates were transferred to 384-well qPCR plates containing the master mix according to the table below. The plates were sealed, gently vortexed, and spun down before the run. The volumes were adjusted accordingly in some instances where the reaction was carried in 20 uL. The table below summarizes the components of the RT-qPCR reactions:
(§7) The RT-qPCR reaction was performed using a QuantStudio (ThermoFisher) under the following fast cycling conditions. […]

For assay [1], the system named is HTT CJ mRNA. Nature of the assay: Splicing assay (RT-qPCR): decrease in HTT canonical junction (CJ) mRNA. The note with it: A673 or K562 cells, 24 hours treatment; concentration having 50% response in CJ mRNA decrease. As for the experimental part: as §1, §2, §3, §4, §5, §6, §7
Assay [2] has as its system HTT CJ mRNA. In words: Gene panel canonical junction qPCR assay: HTT. The note with it: Table 3, concentration having 50% response in CJ decrease, read-out: HTT IC50 (decrease in CJ mRNA levels). On the procedure:
as §1, §2, §3, §4, §5, §6, §7

Another assay relates to SMN2 CJ mRNA. Nature of the assay: Gene panel canonical junction qPCR assay: SMN2. The note with it: Table 3, concentration having 50% response in CJ decrease, read-out: SMN2 IC50 (decrease in CJ mRNA levels). As for the experimental part: as §1, §2, §3, §4, §5, §6, §7
A further assay relates to Target C CJ mRNA. In words: Gene panel canonical junction qPCR assay: Target C. The conditions noted are these: Table 3, concentration having 50% response in CJ decrease, read-out: Target C IC50 (decrease in CJ mRNA levels). On the procedure:
as §1, §2, §3, §4, §5, §6, §7

Turning to `Cc1cn2cc(NC(=O)c3sc([C@@H]4CCN[C@@H](C)C4)cc3F)cc(F)c2n1` [Compound 116, 3-fluoro-N-[8-fluoro-2-methylimidazo[1,2-a]pyridin-6-yl]-5-[(2S,4R)-2-methylpiperidin-4-yl]thiophene-2-carboxamide], the half-maximal activity concentration (AC50) in the assay with HTT AJ mRNA and in the assay with HTT CJ mRNA [1] was 0.1 to 1 µM each time. Moreover, the half-maximal inhibitory concentration (IC50) was 0.1 to 1 µM with HTT CJ mRNA [2], under 0.1 µM in the assay with SMN2 CJ mRNA and 1 to 10 µM in the assay on Target C CJ mRNA.
For the molecule `Cc1cn2cc(NC(=O)c3sc([C@H]4CCN[C@H](C)C4)cc3F)cc(F)c2n1` [Compound 117, 3-fluoro-N-[8-fluoro-2-methylimidazo[1,2-a]pyridin-6-yl]-5-[(2R,4S)-2-methylpiperidin-4-yl]thiophene-2-carboxamide], the half-maximal activity concentration (AC50) lay within 1 to 10 µM in the assay on HTT AJ mRNA and 0.1 to 1 µM in the assay with HTT CJ mRNA [1]. Further, the results for the IC50 in the assay with HTT CJ mRNA [2], with SMN2 CJ mRNA and with Target C CJ mRNA were 0.1 to 1 µM, 0.1 to 1 µM and 1 to 10 µM, respectively.
As for `Cc1cn2cc(NC(=O)c3sc(N4CCN(C)CC4)cc3F)cc(F)c2n1` [Compound 127, 3-fluoro-N-[8-fluoro-2-methylimidazo [1,2-a]pyridin-6-yl]-5-(4-methylpiperazin-1-yl) thiophene-2-carboxamide], the AC50 with HTT AJ mRNA and in the assay on HTT CJ mRNA [1] was over 10 µM in each case. The concentration for half-maximal inhibition (IC50) was over 0.01 µM with HTT CJ mRNA [2], 0.1 to 1 µM in the assay with SMN2 CJ mRNA and under 0.1 µM with Target C CJ mRNA.
Take `Cc1cn2cc(NC(=O)c3sc(N4CCN(C)C(C)C4)cc3F)cc(F)c2n1` (stereo not drawn) [Compound 129, 5-(3,4-dimethylpiperazin-1-yl)-3-fluoro-N-[8-fluoro-2-methylimidazo[1,2-a]pyridin-6-yl]thiophene-2-carboxamide]: the concentration at half-maximal activity (AC50) in the assay on HTT AJ mRNA and in the assay with HTT CJ mRNA [1] was over 10 µM in each case. Further, the IC50 with HTT CJ mRNA [2] is over 0.01 µM; in the assay with SMN2 CJ mRNA, 1 to 10 µM; in the assay on Target C CJ mRNA, over 0.01 µM.
With `Cc1cn2cc(NC(=O)c3sc(N4CCNC(C)(C)C4)cc3F)cc(F)c2n1` [Compound 131, 5-(3,3-dimethylpiperazin-1-yl)-3-fluoro-N-[8-fluoro-2-methylimidazo[1,2-a]pyridin-6-yl] thiophene-2-carboxamide], the half-maximal activity concentration (AC50) with HTT AJ mRNA and in the assay with HTT CJ mRNA [1] was 1 to 10 µM throughout. The IC50 in the assay with HTT CJ mRNA [2] was 1 to 10 µM; in the assay on SMN2 CJ mRNA it was 0.1 to 1 µM; in the assay with Target C CJ mRNA it was over 0.01 µM.
`Cc1cn2cc(NC(=O)c3sc(N4CCNC5(CC5)C4)cc3F)cc(F)c2n1` [Compound 132, 5-[4,7-diazaspiro[2.5]octan-7-yl]-3-fluoro-N-[8-fluoro-2-methylimidazo[1,2-a]pyridin-6-yl]thiophene-2-carboxamide]: the AC50 with HTT AJ mRNA and with HTT CJ mRNA [1] was over 10 µM throughout. For the same molecule, the 50% inhibitory concentration (IC50) with HTT CJ mRNA [2] is over 0.01 µM; with SMN2 CJ mRNA it was 1 to 10 µM; with Target C CJ mRNA it was over 0.01 µM.
In the case of `Cc1cn2cc(NC(=O)c3sc(N4CC(C)(C)NC(C)(C)C4)cc3F)cc(F)c2n1` [Compound 133, 3-fluoro-N-[8-fluoro-2-methylimidazo[1,2-a]pyridin-6-yl]-5-(3,3,5,5-tetramethylpiperazin-1-yl)thiophene-2-carboxamide], the AC50 with HTT AJ mRNA and with HTT CJ mRNA [1] was over 10 µM each time. Also, the values for the concentration for half-maximal inhibition (IC50) with HTT CJ mRNA [2], in the assay with SMN2 CJ mRNA and in the assay with Target C CJ mRNA were over 0.01 µM, 1 to 10 µM and over 0.01 µM, respectively.
Take `Cc1cn2cc(NC(=O)c3sc(N4CC5(CNC5)C4)cc3F)cc(F)c2n1` [Compound 134, 5-[2,6-diazaspiro[3.3]heptan-2-yl]-3-fluoro-N-[8-fluoro-2-methylimidazo[1,2-a]pyridine-6-yl]thiophene-2-carboxamide]: the AC50 in the assay with HTT AJ mRNA and in the assay with HTT CJ mRNA [1] was 1 to 10 µM throughout. Also, the IC50 lay within 1 to 10 µM in the assay on HTT CJ mRNA [2], 0.1 to 1 µM in the assay on SMN2 CJ mRNA and 1 to 10 µM in the assay on Target C CJ mRNA.
Consider `Cc1cn2cc(NC(=O)c3sc(N4CCC(N5CCCC5)C4)cc3F)cc(F)c2n1` (stereo not drawn) [Compound 136, 5-[[1,3′-bipyrrolidin]-1′-yl]-3-fluoro-N-[8-fluoro-2-methylimidazo[1,2-a]pyridin-6-yl]thiophene-2-carboxamide], for which the concentration at half-maximal activity (AC50) with HTT AJ mRNA and in the assay with HTT CJ mRNA [1] was over 10 µM in each case. Further, the figures for the IC50 with HTT CJ mRNA [2], in the assay on SMN2 CJ mRNA and in the assay with Target C CJ mRNA were over 0.01 µM, 0.1 to 1 µM and over 0.01 µM, respectively.
Turning to `Cc1cn2cc(NC(=O)c3sc(N4CCC(NC(C)(C)C)C4)cc3F)cc(F)c2n1` (stereo not drawn) [Compound 137, 5-[3-(tert-butylamino)pyrrolidin-1-yl]-3-fluoro-N-[8-fluoro-2-methylimidazo[1,2-a]pyridin-6-yl]thiophene-2-carboxamide], the half-maximal activity concentration (AC50) with HTT AJ mRNA and in the assay on HTT CJ mRNA [1] was over 10 µM in each case. Further, the concentration for half-maximal inhibition (IC50) was over 0.01 µM in the assay with HTT CJ mRNA [2], over 0.01 µM in the assay with SMN2 CJ mRNA and 0.1 to 1 µM in the assay on Target C CJ mRNA.
Take `Cc1cn2cc(NC(=O)c3sc(N4CCC(N(C)C)C4)cc3F)cc(F)c2n1` (stereo not drawn) [Compound 138, 5-[3-(dimethylamino)pyrrolidin-1-yl]-3-fluoro-N-[8-fluoro-2-methylimidazo[1,2-a]pyridin-6-yl]thiophene-2-carboxamide]: the AC50 with HTT AJ mRNA was over 10 µM; in the assay with HTT CJ mRNA [1], 1 to 10 µM. Also, the IC50 in the assay on HTT CJ mRNA [2] is 1 to 10 µM; in the assay with SMN2 CJ mRNA, 0.1 to 1 µM; with Target C CJ mRNA, over 0.01 µM.
`Cc1cn2cc(NC(=O)c3sc(N4CCN5CCCC5C4)cc3F)cc(F)c2n1` (stereo not drawn) [Compound 139, 3-fluoro-N-[8-fluoro-2-methylimidazo[1,2-a]pyridin-6-yl]-5-[hexahydro-1H-pyrrolo[1,2-a]pyrazin-2-yl] thiophene-2-carboxamide]: the AC50 in the assay on HTT AJ mRNA and with HTT CJ mRNA [1] was over 10 µM throughout. In addition, the concentration for half-maximal inhibition (IC50) was over 0.01 µM in the assay with HTT CJ mRNA [2], 1 to 10 µM with SMN2 CJ mRNA and over 0.01 µM in the assay on Target C CJ mRNA.
On to `Cc1cn2cc(NC(=O)c3sc(N4CCC(NC(C)(C)C)CC4)cc3F)cc(F)c2n1` [Compound 141, 5-[4-(tert-butylamino)piperidin-1-yl]-3-fluoro-N-[8-fluoro-2-methylimidazo[1,2-a]pyridin-6-yl]thiophene-2-carboxamide], for which the half-maximal activity concentration (AC50) with HTT AJ mRNA and with HTT CJ mRNA [1] was over 10 µM each time. Also, the half-maximal inhibitory concentration (IC50) in the assay on HTT CJ mRNA [2] was over 0.01 µM; in the assay on SMN2 CJ mRNA, 1 to 10 µM; in the assay with Target C CJ mRNA it was over 0.01 µM.
Take `CCNC1CCN(c2cc(F)c(C(=O)Nc3cc(F)c4nc(C)cn4c3)s2)CC1` [Compound 142, 5-[4-(ethylamino)piperidin-1-yl]-3-fluoro-N-[8-fluoro-2-methylimidazo [1,2-a]pyridin-6-yl]thiophene-2-carboxamide]: the AC50 with HTT AJ mRNA and with HTT CJ mRNA [1] was 1 to 10 µM each time. Moreover, the half-maximal inhibitory concentration (IC50) in the assay on HTT CJ mRNA [2], with SMN2 CJ mRNA and with Target C CJ mRNA was 1 to 10 µM in each case.
On to `Cc1cn2cc(NC(=O)c3sc(N4C[C@H]5CC[C@@H](C4)N5)cc3F)cc(F)c2n1` [Compound 143, 5-[(1R,5S)-3,8-diazabicyclo[3.2.1]octan-3-yl]-3-fluoro-N-[8-fluoro-2-methylimidazo[1,2-a]pyridin-6-yl]thiophene-2-carboxamide], for which the AC50 with HTT AJ mRNA and with HTT CJ mRNA [1] was over 10 µM each time. In addition, the IC50 is over 0.01 µM with HTT CJ mRNA [2], 1 to 10 µM in the assay on SMN2 CJ mRNA and 1 to 10 µM with Target C CJ mRNA.
